One block for each molecule: values may come before it.
Key:
INPIONCH1 = biological target: T1, INPIONCH1 (Homo sapiens, UniProt Q401N2); experiment: Whole cell patch-clamp of HEK293 cells transfected with INPIONCH1; type: cell-based; details: for activation of current on application: cells transfected with INPIONCH1
T1 construct: V5 (C); His (C); expressed in transfected cells; host or cells: HEK293
T1 sequence (Q401N2 2-412): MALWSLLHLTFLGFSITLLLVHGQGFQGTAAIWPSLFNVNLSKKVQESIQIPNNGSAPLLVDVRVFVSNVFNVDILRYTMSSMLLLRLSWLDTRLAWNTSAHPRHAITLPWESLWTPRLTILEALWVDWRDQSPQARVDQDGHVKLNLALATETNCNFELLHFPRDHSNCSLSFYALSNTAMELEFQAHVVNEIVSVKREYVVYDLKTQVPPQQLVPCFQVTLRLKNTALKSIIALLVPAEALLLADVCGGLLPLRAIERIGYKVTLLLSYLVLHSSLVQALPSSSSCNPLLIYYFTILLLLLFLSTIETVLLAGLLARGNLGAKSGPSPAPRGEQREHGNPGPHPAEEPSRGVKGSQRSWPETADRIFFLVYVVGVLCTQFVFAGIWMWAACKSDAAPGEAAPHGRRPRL
Source text: Cells were clamped at −80 mV or −60 mV. Drugs were applied by pressure ejection from modified micropipettes.

HEK293 cells = details: 1 mM
Protocol: To overcome these difficulties, HEK293 cells were transfected with either INPIONCH1 or one of the two chimeras (IS67 or IS68) and subsequently placed under selection pressure. Following transfection, positively expressing cells were selected by treatment with 1 mM neomycin and only cells that grew under these conditions were used to determine the electrophysiological characteristics of the various expressed clones.

Compound: COc1cc2c3cc1Oc1cc(ccc1O)C[C@@H]1c4c(cc(OC)c(O)c4Oc4ccc(cc4)C[C@@H]3N(C)CC2)CC[N+]1(C)C [Tubocurarine]
- effect on the 5-HT induced channel (INPIONCH1): no effect
- effect on the leak channel (INPIONCH1): no effect

Compound: CC(=O)OCC[N+](C)(C)C [acteylcholine]
- activation of current on application (INPIONCH1): appeared not to activate current

Compound: CN1CCCC1c1cccnc1 (stereo not shown) [nicotine]
- activation of current on application (INPIONCH1): appeared not to activate current
- effect on outward current recorded at positive potentials (INPIONCH1; in some cells): appeared to block outward current

Compound: O=S(=O)([O-])[O-].[Zn+2] [zinc sulphate]
- toxicity to the cells (HEK293 cells): appeared to be toxic
- zinc activated current (INPIONCH1; zinc sulphate application): no consistent specific zinc activated current was observed
- effect on amplitude of the current in response to 5-HT (INPIONCH1; zinc sulphate applied to the cells): appeared to reduce the amplitude

More lines, main results first:

- current on application of 5-HT (INPIONCH1; 10 μM, HEK293 cells expressing INPIONCH1): inward current
- reversal potential of 5-HT-induced current (INPIONCH1; voltage ramps -90 to +90 mV before and after 5-HT application): about 0 mV
- induction of currents before and after application of zinc sulphate (INPIONCH1; zinc sulphate 1 mM): able to induce currents
Compound: NCCc1c[nH]c2ccc(O)cc12 [5-HT, serotonin]
- response following a second application (desensitisation) (INPIONCH1; second application of 5-HT, stated for 'the channels'): minimal or absent

- activation of current on application (INPIONCH1): appeared not to activate current
Compound: NC[C@H](O)c1ccc(O)c(O)c1 [noradrenaline]

From patent publication US20060166310A1, “Serotonin receptor” (Inpharmatica Ltd., priority 2002, published 2006)
